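Five compound concentrations were applied to cells in 96-well plates for 48 hours; endpoints were derived by simple linear interpolation of the resulting dose-response curve. At the GI50, growth is halved. TGI is the concentration that stops growth completely.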
Experiments:
Assay in all cases: NCI-60 cell line screen, 48 h
UACC-257 melanoma = test system: UACC-257 melanoma
OVCAR-4 ovarian = test system: OVCAR-4 ovarian
NCI-H226 lung = test system: NCI-H226 lung
SW-620 colon = test system: SW-620 colon
HOP-62 NSCLC = test system: HOP-62 NSCLC
K-562 leukemia = test system: K-562 leukemia
UO-31 renal = test system: UO-31 renal
HCT-116 colon = test system: HCT-116 colon
KM12 colon = test system: KM12 colon
MDA-MB-231 breast = test system: MDA-MB-231 breast

SMILES: CN(C)c1ccc(/C=C/C(=O)c2ccc(Nc3nc(Nc4ccc(F)cc4)nc(Nc4ccc(Cl)cc4)n3)cc2)cc1
- GI50 (UACC-257 melanoma): 11 µM
- TGI (UACC-257 melanoma): 54.7 µM
- GI50 (OVCAR-4 ovarian): 10.7 µM
- TGI (OVCAR-4 ovarian): > 100 µM
- GI50 (NCI-H226 lung): 15.6 µM
- TGI (NCI-H226 lung): > 100 µM
- GI50 (SW-620 colon): 6.79 µM
- TGI (SW-620 colon): 33.6 µM
- GI50 (HOP-62 NSCLC): 9.42 µM
- TGI (HOP-62 NSCLC): 28.3 µM
- GI50 (K-562 leukemia): 2.77 µM
- TGI (K-562 leukemia): > 100 µM
- GI50 (UO-31 renal): 3.22 µM
- TGI (UO-31 renal): 21.4 µM
- GI50 (HCT-116 colon): 3.3 µM
- TGI (HCT-116 colon): 15.5 µM
- GI50 (KM12 colon): 5.75 µM
- TGI (KM12 colon): 23.2 µM
- GI50 (MDA-MB-231 breast): 9.56 µM
- TGI (MDA-MB-231 breast): 73 µM

SMILES: CCS(=O)(=O)Nc1ccc(Oc2ccc(F)cc2F)c(-c2cn(C)c(=O)c3[nH]ccc23)c1
- GI50 (UACC-257 melanoma): 0.0448 µM
- TGI (UACC-257 melanoma): 23.1 µM
- GI50 (OVCAR-4 ovarian): 0.275 µM
- TGI (OVCAR-4 ovarian): 37 µM
- GI50 (NCI-H226 lung): 2.46 µM
- TGI (NCI-H226 lung): 20.2 µM
- GI50 (SW-620 colon): 1.65 µM
- TGI (SW-620 colon): 25.8 µM
- GI50 (HOP-62 NSCLC): < 0.0245 µM
- TGI (HOP-62 NSCLC): 26.2 µM
- GI50 (K-562 leukemia): 0.0322 µM
- TGI (K-562 leukemia): > 62.6 µM
- GI50 (UO-31 renal): < 0.01 µM
- TGI (UO-31 renal): 12 µM
- GI50 (HCT-116 colon): 0.0321 µM
- TGI (HCT-116 colon): 12.8 µM
- GI50 (KM12 colon): 0.109 µM
- TGI (KM12 colon): 18.2 µM
- GI50 (MDA-MB-231 breast): 0.0494 µM
- TGI (MDA-MB-231 breast): 17.5 µM

SMILES: O=C(/C=C\c1ccc(Cl)c(Cl)c1)c1ccccc1
- GI50 (UACC-257 melanoma): 12.2 µM
- TGI (UACC-257 melanoma): 24.9 µM
- GI50 (OVCAR-4 ovarian): 8.83 µM
- TGI (OVCAR-4 ovarian): 21.3 µM
- GI50 (NCI-H226 lung): 13.9 µM
- TGI (NCI-H226 lung): 30.7 µM
- GI50 (SW-620 colon): 2.21 µM
- TGI (SW-620 colon): 5.52 µM
- GI50 (HOP-62 NSCLC): 17.3 µM
- TGI (HOP-62 NSCLC): 35.1 µM
- GI50 (K-562 leukemia): 2.82 µM
- TGI (K-562 leukemia): 8.1 µM
- GI50 (UO-31 renal): 4.09 µM
- TGI (UO-31 renal): 16.7 µM
- GI50 (HCT-116 colon): 1.91 µM
- TGI (HCT-116 colon): 3.89 µM
- GI50 (KM12 colon): 3.07 µM
- TGI (KM12 colon): 8.88 µM
- GI50 (MDA-MB-231 breast): 12.3 µM
- TGI (MDA-MB-231 breast): 25.2 µM

SMILES: Cc1ccc(SCN2CCCCC2)cc1 (tested in a mixture with another compound)
- TGI (UACC-257 melanoma): 30.6 µM
- TGI (OVCAR-4 ovarian): 43.8 µM
- TGI (NCI-H226 lung): 36.7 µM
- TGI (SW-620 colon): 56.5 µM
- TGI (HOP-62 NSCLC): 37.7 µM
- TGI (K-562 leukemia): 46.3 µM
- TGI (UO-31 renal): 30.2 µM
- TGI (HCT-116 colon): 23.4 µM
- TGI (KM12 colon): 26.5 µM
- TGI (MDA-MB-231 breast): 27.7 µM

SMILES: N#CC1=C(N)Oc2c(ccc3ccccc23)C1c1ccccc1Cl (stereo not given)
- GI50 (UACC-257 melanoma): 11 µM
- TGI (UACC-257 melanoma): 38.2 µM
- GI50 (OVCAR-4 ovarian): 1.13 µM
- TGI (OVCAR-4 ovarian): 20.4 µM
- GI50 (NCI-H226 lung): 1.52 µM
- TGI (NCI-H226 lung): 13.2 µM
- GI50 (SW-620 colon): 0.172 µM
- TGI (SW-620 colon): 14.7 µM
- GI50 (HOP-62 NSCLC): 0.374 µM
- TGI (HOP-62 NSCLC): 17.3 µM
- GI50 (K-562 leukemia): 0.0796 µM
- TGI (K-562 leukemia): > 43.5 µM
- GI50 (UO-31 renal): 0.282 µM
- TGI (UO-31 renal): 24.8 µM
- GI50 (HCT-116 colon): 0.275 µM
- TGI (HCT-116 colon): 5.41 µM
- GI50 (KM12 colon): 0.227 µM
- TGI (KM12 colon): 7.9 µM
- GI50 (MDA-MB-231 breast): 0.571 µM
- TGI (MDA-MB-231 breast): 14.6 µM

SMILES: C#Cc1cccc(NC(=O)Nc2cccc(NC(=O)CCl)c2)c1
- GI50 (UACC-257 melanoma): > 82.5 µM
- TGI (UACC-257 melanoma): > 82.5 µM
- GI50 (OVCAR-4 ovarian): 12 µM
- TGI (OVCAR-4 ovarian): 29.5 µM
- GI50 (NCI-H226 lung): 21.6 µM
- TGI (NCI-H226 lung): 75.2 µM
- GI50 (SW-620 colon): 16.9 µM
- TGI (SW-620 colon): 37.3 µM
- GI50 (HOP-62 NSCLC): 63.6 µM
- TGI (HOP-62 NSCLC): > 82.5 µM
- GI50 (K-562 leukemia): 22.8 µM
- TGI (K-562 leukemia): > 82.5 µM
- GI50 (UO-31 renal): > 82.5 µM
- TGI (UO-31 renal): > 82.5 µM
- GI50 (HCT-116 colon): 20.9 µM
- TGI (HCT-116 colon): > 82.5 µM
- GI50 (KM12 colon): 58.6 µM
- TGI (KM12 colon): > 82.5 µM
- GI50 (MDA-MB-231 breast): 22.9 µM
- TGI (MDA-MB-231 breast): 65.2 µM
